In brackets after ≈: the same amount, converted by molar mass. Read-outs that look alike come from different tables or passages of the source.
Legend:
[1] = system: Crise à l'acide β-mercaptopropionique; assay: β-mercaptopropionic acid seizure test (Crise à l'acide β-mercaptopropionique); format: in vivo, souris; settings: for ED50: Mus musculus, po
Method: L'acide p-mercaptopropionique est un inhibiteur de la glutamate décarboxylase (G.A.D.), enzyme qui catalyse la transformation du glutamate en acide y-aminobutyrique (GABA). Son action se traduit donc par un abaissement du taux de GABA et la survenue de crises généralisées tonico-cloniques 3 à 4 minutes après son administration.
L'acide β-mercaptopropionique a été administré à des lots de 10 souris mâles, par voie intrapéritonéale, à la dose de 70 mg/kg, 30 minutes après l'administration orale d'une dose du composé à étudier. On note le pourcentage des animaux protégés contre la crise tonique 15 minutes après l'administration de l'acide β-mercaptopropionique.

Crise pentétrazolique = assay: Pentetrazol seizure test (Crise pentétrazolique); format: in vivo, souris; settings: mice, 15 minutes after administration of pentetrazol; for ED50: Mus musculus, po, 0.25 h, read-out: DE50 (the source's name)
Method: Ce test, pratiqué sur souris par voie orale, est identique à celui décrit dans le brevet français N° 2.276.036.
Les DE50 obtenues 15 minutes après l'administration du pentécra- zol sont reprises ci-dessous comparativement aux résultats trouvés pour les sels de sodium correspondants : [drawing 12]

Anoxie par confinement = assay: Anoxia by confinement (Anoxie par confinement); format: in vivo, souris; settings: for % d'augmentation du temps de survie: male mice, 75 mg/kg intraperitoneal, versus controls
Method: Des lots de 15 souris mâles sont traités au moyen d'une dose de composé à étudier puis chaque animal est placé dans une enceinte hermétiquement close de 200 cm^3. L'animal est considéré comme mort au moment de l'arrêt respiratoire.
On détermine alors le % d'augmentation du temps de survie par rapport à des témoins.
On trouvera ci-dessous des résultats obtenus avec des composés de l'invention à la dose de 75 mg/kg par voie intrapéritonéale : [drawing 14]

[2] = Solubility and pH of aqueous solution; format: physicochemical; settings: for solubility: water
souris = assay: Acute toxicity (toxicité aiguë); format: in vivo; settings: mice, 1000 mg/kg oral
Method: (§1) Des tests de toxicité aiguë pratiqués sur souris ont montré qu'à la dose de 1000 mg/kg, par voie orale, la mortalité provoquée par le n-propyl-3 hexanoate de magnésium et le n-propyl-3 hexanamide est respectivement de 40% et 0%.
(§2) A titre de comparaison, le n-propyl-3 hexanoate de sodium à la dose de 1000 mg/kg par voie orale provoque déjà 80% de mortalité.

[3] = system: activité anticonvulsivante; assay: Pharmacological studies of anticonvulsant activity (method not specified); format: in vivo; settings: at identical doses, compared with di-n-propylacétate de sodium
[4] = Acute toxicity (toxicité aiguë); format: in vivo; settings: mouse, in vivo, po, 1000 mg/kg, mice, 1000 mg/kg oral; read-out: mortalité
Method: as §1, §2

[5] = male mice, compound oral 30 minutes before β-mercaptopropionic acid 70 mg/kg i.p., protection against tonic seizure 15 minutes after, read-out: DE50 (the source's name)
[6] = male mice, compound oral 30 minutes before β-mercaptopropionic acid 70 mg/kg i.p., protection against tonic seizure 15 minutes after

| Compound | ED50 [1, 5] | ED50 (Crise pentétrazolique) | % d'augmentation du temps de survie (Anoxie par confinement) | also measured |
| --- | --- | --- | --- | --- |
| CCCC(CCC)CCC(=O)O [Y=ONa, n=1, reference compound] | 124 mg/kg | 119 mg/kg |  |  |
| CCCC(CCC)CCCC(=O)O [Y=OMg1/2, n=2, n-Propyl-5 octanoate de magnésium] |  |  | 56% | DE50 [1, 6]: 124 mg/kg; DE50 (Crise pentétrazolique; oral route, 15 min): 152 mg/kg; solubilité dans les solvants organiques ([2]; organic solvents): Bonne solubilité; solubility ([2]; read-out: Solubilité dans l'eau): 1 mg/mL (≈ 5.37 mM) |
| CCCC(CCC)CCC(N)=O [Y=NH2, n=1, n-propyl-4 heptanamide] |  | 104 mg/kg | 15% |  |
| CCCC(CCC)CCC(=O)O [Y=OCa1/2, n=1, n-propyl-4 heptanoate de calcium] |  |  | 27% | DE50 [1, 6]: 101 mg/kg; solubility ([2]; dissolves very slowly, read-out: se dissout dans l'eau): 1000 mg/mL |
| CCCC(CCC)CC(=O)O [Y=ONa, n=0, n-propyl-3 hexanoate de sodium, reference compound] | 168 mg/kg | 95 mg/kg |  | mortalité (souris): 80% |
| CCCC(CCC)C(=O)O [sel de calcium] |  |  |  | potentialités anticonvulsivantes [3]: sensiblement équivalentes à celles du di-n-propylacétate de sodium et même légèrement inférieures |
| CCCC(CCC)CC(N)=O [Y=NH2, n=0, n-propyl-3 hexanamide] | 106 mg/kg | 65 mg/kg |  | mortality [4]: 0% |
| CCCC(CCC)CC(=O)O [Y=OMg1/2, n=0, n-propyl-3 hexanoate de magnésium] |  |  | 36% | DE50 [1, 6]: 145 mg/kg; mortalité (souris): 40%; pH ([2]; 2% aqueous solution, slightly opalescent): 9,4 |
| CCCC(CCC)CCCC(N)=O [Y=NH2, n=2, n-propyl-5 octanamide] | 129 mg/kg | 121 mg/kg | 64% |  |
| CCCC(CCC)C(=O)O [di-n-propylacétate de sodium, reference compound] |  |  |  | ED50 ([1]; read-out: DE50): 175 mg/kg; augmentation du temps de survie (Anoxie par confinement; 200 mg/kg intraperitoneal, comparative test): 32% |
| CCCC(CCC)CCCC(=O)O [Y=ONa, n=2, reference compound] |  | 172 mg/kg |  |  |
